Experiments:
Experiment in all cases: M.I.C., dilutions in liquid medium
Format in all cases: cell-based
[1] = system: Salmonella typhimurium MZ 11; settings: 37° C.; for MIC: Salmonella enterica, TYPHIMURIUM
Method: (§1) A. Activity in Vitro-Method of Dilutions in Liquid Medium
(§2) A series of tubes was prepared in which the same amount of sterile nutritive medium was distributed and there was distributed in each tube increasing amounts of the test product. Then, each tube was inoculated with a bacterial strain and after incubation for twenty-four or forty-eight hours in an oven at 37° C., the inhibition of the growth was evaluated by trans-illumination to determine the minimum inhibiting concentrations (M.I.C.), expressed in μg/ml.

[2] = system: Klebsiella aerogenes 1522 E; settings: 37° C.; for MIC: Klebsiella aerogenes, 1522E
Method: as §1, §2

[3] = system: Escherichia coli 0 78; settings: 37° C.
Method: as §1, §2

[4] = system: Serratia Resistant to Gentamycine 2 532; settings: 37° C.; for M.I.C.: 24 Hr.; for MIC: Serratia
Method: as §1, §2

[5] = system: Providencia Du 48; settings: 37° C.; for MIC: Providencia, DU48
Method: as §1, §2

[6] = system: Klebsiella aerogenes 1082 E; settings: 37° C.; for MIC: Klebsiella aerogenes, 1082E
Method: as §1, §2

[7] = system: Escherichia coli T E M; settings: 37° C.; for MIC: Escherichia coli
Method: as §1, §2

[8] = system: Enterobacter cloacae 1321 E; settings: 37° C.; for MIC: Enterobacter cloacae, 1321E
Method: as §1, §2

[9] = system: Escherichia coli DC 2; settings: 37° C.; for MIC: Escherichia coli, DC2
Method: as §1, §2

[10] = system: Pseudomonas aeruginosa 1771 m; settings: 37° C.; for MIC: Pseudomonas aeruginosa, 1771M
Method: as §1, §2

[11] = system: Klebsiella Pneumoniae Exp. 52145; settings: 37° C.; for M.I.C.: 24 Hr.; for MIC: Klebsiella pneumoniae
Method: as §1, §2

[12] = system: Proteus mirabilis (indol -) A 235; settings: 37° C.; for MIC: Proteus mirabilis
Method: as §1, §2

[13] = system: Escherichia coli DC 0; settings: 37° C.; for MIC: Escherichia coli
Method: as §1, §2

[14] = system: Escherichia coli 1507 E; settings: 37° C.; for MIC: Escherichia coli, 1507E
Method: as §1, §2

[15] = system: Escherichia coli UC 1894; settings: 37° C.; for MIC: Escherichia coli, UC1894
Method: as §1, §2

[16] = system: Proteus vulgaris (indol +) A 232; settings: 37° C.; for MIC: Proteus vulgaris
Method: as §1, §2

[17] = Escherichia coli, 078, 24 h, 24 H
[18] = Escherichia coli, 078, 48 h, 48 H

SMILES	MIC ([1]; 24 h)	MIC ([1]; 48 h)	MIC ([2]; 24 h)	MIC ([2]; 48 h)	MIC [3, 17]	MIC [3, 18]	MIC ([4]; 48 h)	MIC ([5]; 24 Hr.)	MIC ([5]; 48 Hr.)	MIC ([7]; 24 h)	MIC ([7]; 48 h)	MIC ([8]; 24 H)	MIC ([8]; 48 H)	MIC ([9]; 24 H)	MIC ([9]; 48 H)	MIC ([11]; 48 h)	MIC ([12]; 24 h)	MIC ([12]; 48 h)	MIC ([13]; DC0, 24 h, 24 H)	MIC ([13]; DC0, 48 h, 48 H)	also measured
CON=C(C(=O)NC1C(=O)N(S(=O)(=O)O)C1CF)c1csc(N)n1 (mixture of isomers) [Example 5, Racemate of syn isomer of cis 4-fluoromethyl-3-[2-(2-amino-4-thiazolyl)-2-methoxyimino-acetamido]-2-oxo-azetidine-1-sulfonic acid]	0.08 µg/mL	0.08 µg/mL	0.15 µg/mL	0.15 µg/mL	0.15 µg/mL	0.15 µg/mL	1.2 µg/mL	0.3 µg/mL	0.3 µg/mL	0.15 µg/mL	0.15 µg/mL	0.08 µg/mL	0.08 µg/mL	0.15 µg/mL	0.3 µg/mL	0.3 µg/mL	0.08 µg/mL	0.08 µg/mL	0.3 µg/mL	0.3 µg/mL	M.I.C. [4]: 0.06 µg/mL; MIC ([6]; 24 h): 5 µg/mL; MIC ([6]; 48 h): 5 µg/mL; MIC ([10]; 24 H): 0.6 µg/mL; MIC ([10]; 48 H): 1.2 µg/mL; M.I.C. [11]: 0.3 µg/mL; MIC ([14]; 24 h): 0.15 µg/mL; MIC ([14]; 48 h): 0.15 µg/mL; MIC ([15]; 24 H): ≤ 0.04 µg/mL; MIC ([15]; 48 H): ≤ 0.04 µg/mL; MIC ([16]; 24 Hr.): ≤ 0.04 µg/mL; MIC ([16]; 48 Hr.): ≤ 0.04 µg/mL
CC(C)(ON=C(C(=O)NC1C(=O)N(S(=O)(=O)O)C1CF)c1csc(N)n1)C(=O)O (mixture of isomers) [Example 6, Racemate of syn isomer of cis 4-fluoromethyl-3-[2-(2-amino-4-thiazolyl)-2-(1-carboxy-1-methyl-ethoxy)-imino-acetamido]-2-oxo-azetidine-1-sulfonic acid]	0.6 µg/mL	0.6 µg/mL	0.3 µg/mL	0.3 µg/mL	0.3 µg/mL	0.3 µg/mL	0.3 µg/mL	0.15 µg/mL	0.15 µg/mL	0.6 µg/mL	0.6 µg/mL	0.3 µg/mL	0.3 µg/mL	0.3 µg/mL	0.3 µg/mL	0.6 µg/mL	≤ 0.04 µg/mL	≤ 0.04 µg/mL	0.6 µg/mL	0.6 µg/mL	MIC ([4]; 24 h): 0.3 µg/mL; MIC ([6]; 24 h): 0.6 µg/mL; MIC ([6]; 48 h): 0.6 µg/mL; MIC ([10]; 24 H): 0.3 µg/mL; MIC ([10]; 48 H): 0.6 µg/mL; MIC ([11]; 24 h): 0.6 µg/mL; MIC ([14]; 24 h): 0.6 µg/mL; MIC ([14]; 48 h): 0.6 µg/mL; MIC ([15]; 24 H): 0.08 µg/mL; MIC ([15]; 48 H): 0.08 µg/mL; MIC ([16]; 24 Hr.): ≤ 0.04 µg/mL; MIC ([16]; 48 Hr.): ≤ 0.04 µg/mL
Nc1nc(C(=NOC(F)F)C(=O)NC2C(=O)N(S(=O)(=O)O)C2CF)cs1 (mixture of isomers) [Example 8, Racemate of the syn isomer of cis 4-fluoromethyl-3-[2-(2-amino-4-thiazolyl)-2-difluoromethoxyimino-acetamido]-2-oxo-azetidine-1-sulfonic acid]	0.08 µg/mL	0.08 µg/mL	0.08 µg/mL	0.08 µg/mL	0.08 µg/mL	0.08 µg/mL	0.6 µg/mL	0.3 µg/mL	0.3 µg/mL	0.15 µg/mL	0.15 µg/mL	0.08 µg/mL	0.08 µg/mL	≤ 0.04 µg/mL	≤ 0.04 µg/mL	0.3 µg/mL	≤ 0.04 µg/mL	≤ 0.04 µg/mL	0.08 µg/mL	0.08 µg/mL	MIC ([4]; 24 h): 0.6 µg/mL; MIC ([11]; 24 h): 0.3 µg/mL; MIC ([14]; 24 h): ≤ 0.04 µg/mL; MIC ([14]; 48 h): ≤ 0.04 µg/mL; MIC ([15]; 24 H): ≤ 0.04 µg/mL; MIC ([15]; 48 H): ≤ 0.08 µg/mL; MIC ([16]; 24 Hr.): ≤ 0.04 µg/mL; MIC ([16]; 48 Hr.): ≤ 0.04 µg/mL
CON=C(C(=O)NC1C(=O)N(S(=O)(=O)O)C1CF)c1csc(N)n1 [Example 11, (3S,4S)ΔZ 4-fluoromethyl-3-[2-(2-amino-4-thiazolyl)-2-methoxyimino-acetamido]-2-oxo-azetidine-1-sulfonic acid]																					M.I.C. ([1]; 24 H): ≤ 0.04 µg/mL; M.I.C. ([2]; 24 H): 0.08 µg/mL; M.I.C. ([3]; 24 H): 0.08 µg/mL; M.I.C. [4]: 2.5 µg/mL; M.I.C. ([5]; 24 Hr.): 0.3 µg/mL; M.I.C. ([6]; 24 H): 10 µg/mL; M.I.C. ([7]; 24 H): 0.08 µg/mL; M.I.C. ([8]; 24 H): 0.08 µg/mL; M.I.C. ([9]; 24 H): 0.15 µg/mL; M.I.C. ([10]; 24 H): 0.6 µg/mL; M.I.C. [11]: 0.08 µg/mL; M.I.C. ([12]; 24 Hr.): 0.15 µg/mL; M.I.C. ([13]; 24 H): 0.15 µg/mL; M.I.C. ([14]; 24 H): 0.08 µg/mL; M.I.C. ([15]; 24 H): ≤ 0.04 µg/mL; M.I.C. ([16]; 24 Hr.): ≤ 0.04 µg/mL

Source: US5057512A, “3-amino-2-oxo-azetidine-1-sulfonic acids” (Uclaf; Roussel, priority 1981, dated 1991)
